{"source": "patent US20170152226A1", "about": "“FUNCTIONALISED AND SUBSTITUTED INDOLES AS ANTI-CANCER AGENTS” (Novogen Ltd., priority 2014, published 2017)", "type_in_all_cases": "cell-based", "key": {"D20": {"system": "D20", "test": "Anti-proliferative activity, MTS viability assay", "details": "72 hours exposure, read-out: IC50 Melanoma D20", "description": "(§1) The anti-proliferative activity of compound 3507 was further evaluated in cell lines representative of melanoma, prostate cancer, leukaemia and neuroblastoma. Cell viability after 72 hours exposure to increasing concentrations of compound 3507 was measured using an MTS viability assay. Cell viability was normalized to control (vehicle alone) and dose-response curves, and relative inhibitory concentration (IC50) values were determined using GraphPad Prism 6."}, "HL-60": {"system": "HL-60", "test": "Anti-proliferative activity, MTS viability assay", "details": "Homo sapiens, 72 hours exposure, read-out: IC50 Leukemia HL-60", "description": "as §1"}, "P4E6": {"system": "P4E6", "test": "Anti-proliferative activity, MTS viability assay", "details": "72 hours exposure, read-out: IC50 Prostate P4E6", "description": "as §1"}, "THP-1": {"system": "THP-1", "test": "Anti-proliferative activity, MTS viability assay", "details": "Homo sapiens, 72 hours exposure, read-out: IC50 Leukemia THP-1", "description": "as §1"}, "CHLA-20": {"system": "CHLA-20", "test": "Anti-proliferative activity, MTS viability assay", "details": "72 hours exposure, read-out: IC50 Neuroblastoma CHLA-20", "description": "as §1"}, "LNCaP": {"system": "LNCaP", "test": "Anti-proliferative activity, MTS viability assay", "details": "Homo sapiens, 72 hours exposure, read-out: IC50 Prostate LNCaP", "description": "as §1"}, "A2058": {"system": "A2058", "test": "Anti-proliferative activity, MTS viability assay", "details": "Homo sapiens, 72 hours exposure, read-out: IC50 Melanoma A2058", "description": "as §1"}, "K562": {"system": "K562", "test": "Anti-proliferative activity, MTS viability assay", "details": "Homo sapiens, 72 hours exposure, read-out: IC50 Leukemia K562", "description": "as §1"}, "BL": {"system": "BL", "test": "Anti-proliferative activity, MTS viability assay", "details": "72 hours exposure, read-out: IC50 Melanoma BL", "description": "as §1"}, "MM96L": {"system": "MM96L", "test": "Anti-proliferative activity, MTS viability assay", "details": "Homo sapiens, 72 hours exposure, read-out: IC50 Melanoma MM96L", "description": "as §1"}, "SK-N-Be(2)": {"system": "SK-N-Be(2)", "test": "Anti-proliferative activity, MTS viability assay", "details": "Homo sapiens, SKNBE2, 72 hours exposure, read-out: IC50 Neuroblastoma SK-N-Be(2)", "description": "as §1"}, "MM329": {"system": "MM329", "test": "Anti-proliferative activity, MTS viability assay", "details": "72 hours exposure, read-out: IC50 Melanoma MM329", "description": "as §1"}, "CHP-134": {"system": "CHP-134", "test": "Anti-proliferative activity, MTS viability assay", "details": "Homo sapiens, 72 hours exposure, read-out: IC50 Neuroblastoma CHP-134", "description": "as §1"}, "CHLA-90": {"system": "CHLA-90", "test": "Anti-proliferative activity, MTS viability assay", "details": "72 hours exposure, read-out: IC50 Neuroblastoma CHLA-90", "description": "as §1"}, "SKMEL13": {"system": "SKMEL13", "test": "Anti-proliferative activity, MTS viability assay", "details": "72 hours exposure, read-out: IC50 Melanoma SKMEL13", "description": "as §1"}, "MM415": {"system": "MM415", "test": "Anti-proliferative activity, MTS viability assay", "details": "72 hours exposure, read-out: IC50 Melanoma MM415", "description": "as §1"}, "BPH-1": {"system": "BPH-1", "test": "Anti-proliferative activity, MTS viability assay", "details": "Homo sapiens, 72 hours exposure, read-out: IC50 Prostate BPH-1", "description": "as §1"}, "IL-6": {"system": "IL-6", "test": "Inhibition of cytokine release from PBMCs (HTRF)", "details": "PBMC, human PBMCs, LPS stimulated", "description": "(§2) The ability of compounds 3507, 3520, 3534 and 3538 to inhibit the release of cytokines TNF-α, IFN-γ, IL-6, IL-21, IL-17A and IL-23 was evaluated in vitro (Tables 4 and 5). Briefly, human peripheral blood mononuclear cells (PBMCs) were isolated from human peripheral blood by Histopaque density gradient centrifugation. The freshly isolated PBMCs were seeded at 50,000 cells/well in a 96-well half area plate. PBMCs were dosed with the test compounds (at 10 μM, 1 μM and 0.1 μM) and then incubated at 37° C. and 5% CO2 for 2 hours. To stimulate release of the cytokines IFN-γ, IL-21, IL-17A and IL-23, the PBMCs were treated with 50 ng/mL of phorbol 12-myristate 13-acetate (PMA) and 1 μg/mL of ionomycin and to stimulate the release of TNF-α and IL-6, PBMCs were treated with 100 ng/mL of lipopolysaccharide (LPS) from gram-negative bacteria. The PBMCs were then incubated at 37° C. and 5% CO2 for a further 6 hours and the cell supernatant was collected and a Homogenous Time Resolved Fluorescence (HTRF) assay was carried out following the manufacturer's instructions. Cytokine release from the PBMCs was captured using a Perkin Elmer ENVISION 2104 microplate reader set at 615 nm and 665 nm respectively."}, "IL-21": {"system": "IL-21", "test": "Inhibition of cytokine release from PBMCs (HTRF)", "details": "PBMC, human PBMCs, PMA and ionomycin stimulated", "description": "as §2"}, "IFN-γ": {"system": "IFN-γ", "test": "Inhibition of cytokine release from PBMCs (HTRF)", "details": "PBMC, human PBMCs, PMA and ionomycin stimulated", "description": "as §2"}, "IL-17A": {"system": "IL-17A", "test": "Inhibition of cytokine release from PBMCs (HTRF)", "details": "PBMC, human PBMCs, PMA and ionomycin stimulated", "description": "as §2"}, "IL-23": {"system": "IL-23", "test": "Inhibition of cytokine release from PBMCs (HTRF)", "details": "PBMC, human PBMCs, PMA and ionomycin stimulated", "description": "as §2"}, "TNF-α": {"system": "TNF-α", "test": "Inhibition of cytokine release from PBMCs (HTRF)", "details": "PBMC, human PBMCs, LPS stimulated", "description": "as §2"}}}
{"smiles": "Cc1c(C)n(CCCN2CCN(C)CC2)c2ccc(Oc3cccc(C(=O)N4CCN(CCc5ccc(F)cc5)CC4)c3)cc12", "note": "[Compound 3507, (3-((2,3-dimethyl-1-(3-(4-methylpiperazin-1-yl)propyl)-1H-indol-5-yl)oxy)phenyl)(4-(4-fluorophenethyl)piperazin-1-yl)methanone]", "values": [{"measurement": "IC50", "setting": "D20", "value": 5.01, "unit": "µM"}, {"measurement": "IC50", "setting": "HL-60", "value": 1.16, "unit": "µM"}, {"measurement": "IC50", "setting": "P4E6", "value": 0.87, "unit": "µM"}, {"measurement": "IC50", "setting": "THP-1", "value": 0.8, "unit": "µM"}, {"measurement": "IC50", "setting": "CHLA-20", "value": 6.9, "unit": "µM"}, {"measurement": "IC50", "setting": "LNCaP", "value": 0.59, "unit": "µM"}, {"measurement": "IC50", "setting": "A2058", "value": 4.06, "unit": "µM"}, {"measurement": "IC50", "setting": "K562", "value": 0.95, "unit": "µM"}, {"measurement": "IC50", "setting": "BL", "value": 5.83, "unit": "µM"}, {"measurement": "IC50", "setting": "MM96L", "value": 3.27, "unit": "µM"}, {"measurement": "IC50", "setting": "SK-N-Be(2)", "value": 5.47, "unit": "µM"}, {"measurement": "IC50", "setting": "MM329", "value": 3.8, "unit": "µM"}, {"measurement": "IC50", "setting": "CHP-134", "value": 7.2, "unit": "µM"}, {"measurement": "IC50", "setting": "CHLA-90", "value": 4.24, "unit": "µM"}, {"measurement": "IC50", "setting": "SKMEL13", "value": 3.72, "unit": "µM"}, {"measurement": "IC50", "setting": "MM415", "value": 4.67, "unit": "µM"}, {"measurement": "IC50", "setting": "BPH-1", "value": 0.72, "unit": "µM"}, {"measurement": "inhibition at 0.1 µM", "setting": "IL-6; 0.1 μM", "value": -9, "unit": "%"}, {"measurement": "inhibition at 1 µM", "setting": "IL-6; 1 μM", "value": 21, "unit": "%"}, {"measurement": "inhibition at 10 µM", "setting": "IL-6; 10 μM", "value": 68, "unit": "%"}, {"measurement": "inhibition at 0.1 µM", "setting": "IL-21; 0.1 μM", "value": -6, "unit": "%"}, {"measurement": "inhibition at 1 µM", "setting": "IL-21; 1 μM", "value": 5, "unit": "%"}, {"measurement": "inhibition at 10 µM", "setting": "IL-21; 10 μM", "value": 19, "unit": "%"}, {"measurement": "inhibition at 0.1 µM", "setting": "IFN-γ; 0.1 μM", "value": 16, "unit": "%"}, {"measurement": "inhibition at 1 µM", "setting": "IFN-γ; 1 μM", "value": 42, "unit": "%"}, {"measurement": "inhibition at 10 µM", "setting": "IFN-γ; 10 μM", "value": 77, "unit": "%"}, {"measurement": "inhibition at 0.1 µM", "setting": "IL-17A; 0.1 μM", "value": 2, "unit": "%"}, {"measurement": "inhibition at 1 µM", "setting": "IL-17A; 1 μM", "value": 4, "unit": "%"}, {"measurement": "inhibition at 10 µM", "setting": "IL-17A; 10 μM", "value": 13, "unit": "%"}, {"measurement": "inhibition at 0.1 µM", "setting": "IL-23; 0.1 μM", "value": -7, "unit": "%"}, {"measurement": "inhibition at 1 µM", "setting": "IL-23; 1 μM", "value": 0, "unit": "%"}, {"measurement": "inhibition at 10 µM", "setting": "IL-23; 10 μM", "value": 20, "unit": "%"}, {"measurement": "inhibition at 0.1 µM", "setting": "TNF-α; 0.1 μM", "value": 52, "unit": "%"}, {"measurement": "inhibition at 1 µM", "setting": "TNF-α; 1 μM", "value": 68, "unit": "%"}, {"measurement": "inhibition at 10 µM", "setting": "TNF-α; 10 μM", "value": 90, "unit": "%"}]}
